This note sets out measurements from US8853147B2, “Use of peptide epoxyketones for metastasis suppression” (Onyx Therapeutics, Inc., priority 2009, dated 2014).

In the test the test system is 4T1 mammary carcinoma cells. The experiment in a line: 4T1 mammary carcinoma metastasis model in BALB/c mice (mammary fat pad challenge, lung metastases). The format is in vivo. The conditions noted are these: female BALB/c mice. As to the method:
6-8 week old female BALB/c mice were challenged in the mammary fat pad with 4T1 mammary carcinoma cells (1×10^5/mouse). Treatment was initiated on Day 3 post tumor challenge. Compound 1 was administered orally at 30 or 40 mg/kg on a weekly schedule of QDX2 or QDX5.

“Also recorded” adds a separate entry of the source.

On to `COC[C@H](NC(=O)c1cnc(C)s1)C(=O)N[C@@H](COC)C(=O)N[C@@H](Cc1ccccc1)C(=O)[C@@]1(C)CO1` [Compound 1], for which the “reduction of the number of metastatic tumors in the lung” value (4T1 cells 1×10^5/mouse in mammary fat pad, oral 30 or 40 mg/kg, weekly schedule QDX2 or QDX5, treatment from Day 3 post tumor challenge) was “about 50%”. Besides, the “repression of metastasis (number of metastatic tumors), result in words” value (4T1 model, both dose schedules (QDX2, QDX5) and dose levels (30, 40 mg/kg oral), FIG. 1) was “reduction in the number of metastatic breast tumors; also recorded: effective in repressing metastasis”.
